Patent US20090280549A1, “Method for Treating Body Fluid” (priority 2005, published 2009)

Test system: KG-1 cells (human acute myeloid leukemia cells)
Experiment: ATX-S10•Na(II) uptake into KG-1 cells
Type: cell-based
Settings: for ATX-S10•Na(II) uptake: KG-1
Procedure: After labeling the compound represented by formula (II) above (hereinafter referred to as “ATX-S10•Na(II)”) with ^14C, the ATX-S10•Na(II) was dissolved in saline at a concentration of approximately 1×10^−3 mol/L, and the solution was filtered and sterilized with a 0.22 μm filter and then diluted with 1% FBS (fetal bovine serum)-containing RPMI1640 medium to prepare a 5×10^−5 mol/L ATX-S10•Na(II)-added solution.
As malignant lymphoma cells and leukemia cells, there were used THP-1 cells (human monocytic leukemia cells), EoL-1 cells (human eosinophilic leukemia cells), A3/KAW cells (human malignant lymphoma cells) and KG-1 cells (human acute myeloid leukemia cells). All of the cells were cultured using 10% FBS-containing RPMI1640 medium, with subculturing 1 to 2 times per week during the culturing. The THP-1 cells and EoL-1 cells were obtained from RIKEN BioResource Center, and the A3/KAW cells and KG-1 cells were obtained from Japan Health Sciences Foundation.
After adding 400 μL of the cell suspension and 100 μL of the ATX-S10•Na(II)-added solution to each well of a 48-well microplate and mixing, the mixtures were incubated with a CO2 incubator (37° C., 5% CO2) or allowed to stand in a refrigerating chamber (approximately 4° C.). The cells were separated immediately after addition (0 hours after addition) and 1 hour, 3 hours, 20 hours and 44 hours after addition, and ATX-S10•Na(II) uptake into the cells (including cell surface binding) was measured. The uptake with standing at 4° C. corresponds to cell surface binding, and the value of the uptake with incubation at 37° C. minus the uptake with standing at 4° C. is presumed to correspond to the substantial ATX-S 10 Na(II) uptake for each type of cell.
The cell separation and uptake measurement were performed in the following manner. Specifically, 1 mL of 1.5% BSA (bovine serum albumin)-containing PBS solution (ice-cold) was placed in a 1.5 mL tube. The suspension of cells to be separated was gently pipetted and mixed, and a 100 μL portion was taken and superposed onto the 1.5% BSA-containing PBS solution. For each well, the cell suspension (300 μL) was dispensed into three tubes (n=3). After centrifugation (3200 rpm, 10 minutes, 4° C.), the medium and 1.5% BSA-containing PBS solution were removed by suction, and then the precipitate was suspended in 100 μL of PBS(−), and 1 mL of PBS(−) was further added and mixed therewith. After additional centrifugation (3000 rpm, 10 minutes, 4° C.), the supernatant was removed by suction, and the bottom of the tube, where the precipitate is present, was cut out and transferred to a counting vial. Then 4.5 mL of liquid scintillator was added and mixed therewith, and the radioactivity was measured for 5 minutes using a liquid scintillation counter. The measured radioactivity was used to calculate the ATX-S10•Na(II) uptake (pmol/10^5 cells) into the cells.

C=Cc1c(C)c2cc3nc(cc4[nH]c(cc5nc(cc1[nH]2)C(C)=C5CCC(=O)NC(CC(=O)[O-])C(=O)[O-])c(CCC(=O)NC(CC(=O)[O-])C(=O)[O-])c4C)C(C)(O)/C3=C\C=NO.[Na+].[Na+].[Na+].[Na+] (stereo not shown) [ATX-S10•Na(II)]
ATX-S10•Na(II) uptake (0 hr, immediately after addition): 0.40 pmol/10^5 cells
ATX-S10•Na(II) uptake (1 hr, incubation at 37° C.): 2.34 pmol/10^5 cells
ATX-S10•Na(II) uptake (1 hr, standing at 4° C.): 1.36 pmol/10^5 cells
ATX-S10•Na(II) uptake (3 hr, incubation at 37° C.): 2.59 pmol/10^5 cells
ATX-S10•Na(II) uptake (3 hr, standing at 4° C.): 1.50 pmol/10^5 cells
ATX-S10•Na(II) uptake (20 hr, incubation at 37° C.): 6.85 pmol/10^5 cells
ATX-S10•Na(II) uptake (20 hr, standing at 4° C.): 2.87 pmol/10^5 cells
ATX-S10•Na(II) uptake (44 hr, incubation at 37° C.): 10.97 pmol/10^5 cells
ATX-S10•Na(II) uptake (44 hr, standing at 4° C.): 0.96 pmol/10^5 cells
substantial uptake of ATX-S10•Na(II) (uptake at 37° C. minus uptake at 4° C.) (KG-1 cells, course over incubation time): increased with incubation time
